In patent publication US8946439B2, “Amide compounds, compositions and uses thereof” (Evotec AG, priority 2008, dated 2015) one finds IC50 data, which are given here for 34 compounds.

In one assay the target is T1, hP2X2/3H (Homo sapiens, UniProt P56373+Q9UBL9).
T1 construct: expressed in transfected cells; host or cells: e.g. HEK293 or 1321N1
T1 sequence (Q9UBL9 1-471): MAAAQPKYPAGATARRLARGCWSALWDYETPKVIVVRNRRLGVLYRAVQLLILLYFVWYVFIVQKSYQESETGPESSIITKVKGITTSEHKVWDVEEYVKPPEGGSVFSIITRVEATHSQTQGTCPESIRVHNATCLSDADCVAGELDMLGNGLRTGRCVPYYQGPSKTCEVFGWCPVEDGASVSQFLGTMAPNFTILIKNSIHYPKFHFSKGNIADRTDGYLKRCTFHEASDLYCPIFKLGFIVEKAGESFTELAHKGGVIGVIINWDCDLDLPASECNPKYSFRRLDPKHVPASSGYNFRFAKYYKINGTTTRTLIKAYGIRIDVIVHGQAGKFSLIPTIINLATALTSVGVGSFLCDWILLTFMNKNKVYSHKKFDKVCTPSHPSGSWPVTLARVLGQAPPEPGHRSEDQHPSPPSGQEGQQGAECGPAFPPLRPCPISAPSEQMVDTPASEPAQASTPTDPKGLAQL
T1 sequence (P56373 1-397): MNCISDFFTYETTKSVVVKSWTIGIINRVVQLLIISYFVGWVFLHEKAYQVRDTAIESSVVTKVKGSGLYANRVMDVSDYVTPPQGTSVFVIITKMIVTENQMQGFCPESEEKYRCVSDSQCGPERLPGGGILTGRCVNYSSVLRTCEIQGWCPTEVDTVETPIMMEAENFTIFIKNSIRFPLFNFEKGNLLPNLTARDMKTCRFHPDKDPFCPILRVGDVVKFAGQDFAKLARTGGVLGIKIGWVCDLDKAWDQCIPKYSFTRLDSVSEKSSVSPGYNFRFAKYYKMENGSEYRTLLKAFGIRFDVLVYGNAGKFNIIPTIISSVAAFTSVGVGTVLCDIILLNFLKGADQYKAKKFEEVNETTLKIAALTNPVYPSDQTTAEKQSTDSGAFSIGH
The experiment in a line: Calcium uptake assay (P2X antagonist assay), P2X2/3 heteromer. Particulars: calcium uptake assay, hP2X2/3H; read-out: IC50 hP2X2/3H (nM), Ca Influx. Format: cell-based. An outline of the steps:
(§1)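 Stably or transiently transfected HEK293 or 1321N1 cells; the heteromer is made by adding P2X3 to a P2X2-stable line, with heteromer function isolated pharmacologically. The peak-minus-baseline FLIPR calcium signal gives % inhibition and a 4-parameter-logistic IC50.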

A further assay deals with T2, hP2X3 (Homo sapiens, UniProt P56373).
T2 construct: expressed in transfected cells; host or cells: e.g. HEK293 or 1321N1
T2 sequence (P56373 1-397): T1 sequence (P56373 1-397)
The experiment in a line: Calcium uptake assay (P2X antagonist assay), P2X3 homomer. Format: cell-based. Particulars: calcium uptake assay, hP2X3; read-out: IC50 hP2X3 (nM), Ca Influx. Put shortly:
as §1

Take `Cc1ccc(-c2cc(C(=O)O)cc(C(=O)NCc3ccc(C)nc3)c2)cc1` [Compound 87, 4′-Methyl-5-((6-methylpyridin-3-yl)methylcarbamoyl)biphenyl-3-carboxylic acid]: the IC50 on hP2X2/3H and at hP2X3 was 100 to 500 nM in each case.
`CCOC(=O)c1cc(C(=O)NCc2ccc(C)nc2)cc(-c2ccc(C)cc2)c1` [Compound 88]: the IC50 is less than 100 nM on hP2X2/3H and 100 to 500 nM at hP2X3.
In the case of `Cc1ccc(-c2cc(C(=O)N[C@H](CO)c3ccc(C(F)F)nc3)cc(C(=O)N3CCCC3)c2)cc1` [Compound 89], the IC50 on hP2X2/3H and on hP2X3 was less than 100 nM each time.
Turning to `Cc1ccc(-c2cc(C(=O)NCc3ccc4ocnc4c3)cc(C(=O)N3CCCC3)c2)cc1` [Compound 90], the IC50 on hP2X2/3H and at hP2X3 was less than 100 nM each time.
On to `Cc1ccc(-c2cc(C(=O)NCc3ccc(Cl)nc3)cc(C(=O)N3CCCC3)c2)cc1` [Compound 91], for which the IC50 at hP2X2/3H and at hP2X3 was less than 100 nM in each case.
As for `Cc1ccc(-c2cc(C(=O)N[C@H](CO)c3ccc(C(F)(F)F)nc3)cc(C(=O)N3CCCC3)c2)cc1` [Compound 92], the IC50 at hP2X2/3H and on hP2X3 was less than 100 nM throughout.
As for `Cc1ccc(-c2cc(C(=O)N[C@@H](C)c3cnc(C)nc3)cc(C(=O)N3CCCC3)c2)cc1` [Compound 93], the figures for the IC50 at hP2X2/3H and at hP2X3 were 501 to 1000 nM and 100 to 500 nM, respectively.
In the case of `Cc1ccc(-c2cc(C(=O)NCc3ccc(C)nc3)cc(C(=O)N3CC[C@@H](O)C3)c2)cc1` [Compound 94, (R)-5-(3-Hydroxypyrrolidine-1-carbonyl)-4′-methyl-N-((6-methylpyridin-3-yl)methyl)biphenyl-3-carboxamide], the IC50 at hP2X2/3H and on hP2X3 was less than 100 nM throughout.
With `Cc1ccc(-c2cc(C(=O)NCc3ccc(C)nc3)cc(C(=O)N3CC[C@H](O)C3)c2)cc1` [Compound 95, (S)-5-(3-Hydroxypyrrolidine-1-carbonyl)-4′-methyl-N-((6-methylpyridin-3-yl)methyl)biphenyl-3-carboxamide], the IC50 is 100 to 500 nM at hP2X2/3H and less than 100 nM on hP2X3.
Consider `Cc1ccc(-c2cc(C(=O)N[C@H](CO)c3cnc(C)nc3)cc(C(=O)N3CCCC3)c2)cc1` [Compound 96], for which the IC50 at hP2X2/3H and at hP2X3 was less than 100 nM each time.
Take `Cc1ccc(-c2cc(C(=O)NC(C)c3ccc4c(c3)OCO4)cc(C(=O)N3CCCC3)c2)cc1` (centres unmarked) [Compound 97]: the IC50 at hP2X2/3H and on hP2X3 was 100 to 500 nM each time.
Regarding `Cc1ccc(-c2cc(C(=O)NCc3ccc4c(c3)OCO4)cc(C(=O)N3CCCC3)c2)cc1` [Compound 98], the IC50 at hP2X2/3H and on hP2X3 was 100 to 500 nM in each case.
As to `Cc1ncc(CNC(=O)c2cc(C(=O)N3CCCC3)cc(-c3ccc(F)cn3)c2)cn1` [Compound 99], the IC50 on hP2X2/3H and on hP2X3 was greater than 1000 nM in each case.
Take `Cc1ccc(-c2cc(C(=O)NCc3ccc(C)nc3)cc(C(=O)N3CC[C@@H](NC(=O)OC(C)(C)C)C3)c2)cc1` [Compound 100]: the IC50 on hP2X2/3H lay in the range of 100 to 500 nM; at hP2X3, 501 to 1000 nM.
For `Cc1ccc(-c2cc(C(=O)NCc3ccc(C)nc3)cc(C(=O)N3CC[C@@H](N)C3)c2)cc1` [Compound 101], the figures for the IC50 at hP2X2/3H and on hP2X3 were 501 to 1000 nM and 100 to 500 nM, respectively.
As to `Cc1ccc(-c2cc(C(=O)NCc3ccc(Cl)c(-n4cnnc4)c3)cc(C(=O)N3CCCC3)c2)cc1` [Compound 102], the IC50 at hP2X2/3H and on hP2X3 was less than 100 nM each time.
Turning to `Cc1ccc(-c2cc(C(=O)NC(C)c3ccc(C)nc3)cc(C(=O)N3CCCC3)c2)cc1` (centres unmarked) [Compound 103], the IC50 at hP2X2/3H and at hP2X3 was less than 100 nM in each case.
Regarding `Cc1ccc(-c2cc(C(=O)N[C@H](C)c3cnc(C)c(Cl)c3)cc(C(=O)N3CCCC3)c2)cc1` [Compound 104], the IC50 at hP2X2/3H is 100 to 500 nM; at hP2X3 it was less than 100 nM.
Consider `Cc1ccc(-c2cc(C(=O)NCc3ccc(C)nc3)cc(S(=O)(=O)N3CCCC3)c2)cc1` [Compound 105], for which the IC50 at hP2X2/3H and on hP2X3 was less than 100 nM throughout.
With `Cc1ccc(-c2cc(C(=O)NCc3ccc(C)nc3)cc(S(=O)(=O)N3CCCC3)c2)nc1` [Compound 106], the IC50 at hP2X2/3H and on hP2X3 was less than 100 nM in each case.
`Cc1ccc(-c2cc(C(=O)N[C@H](C)c3cnn(C)c3C(F)(F)F)cc(C(=O)N3CCCC3)c2)cc1` [Compound 107]: the IC50 lay in the range of 501 to 1000 nM on hP2X2/3H and 100 to 500 nM on hP2X3.
In the case of `Cc1ccc(-c2cc(C(=O)N[C@H](C)c3cnn(C)c3Cl)cc(C(=O)N3CCCC3)c2)cc1` [Compound 108, (R)—N-(1-(5-Chloro-1-methyl-1H-pyrazol-4-yl)ethyl)-4′-methyl-5-(pyrrolidine-1-carbonyl)biphenyl-3-carboxamide], the IC50 on hP2X2/3H and on hP2X3 was less than 100 nM throughout.
As to `Cc1ccc(-c2cc(C(=O)N[C@H](C)c3cnn(C)c3C)cc(C(=O)N3CCCC3)c2)cc1` [Compound 109], the IC50 was in the range of 501 to 1000 nM on hP2X2/3H and 100 to 500 nM on hP2X3.
For the compound `Cc1ccc(-c2cc(C(=O)N[C@H](C)c3cnn4c3COCC4)cc(C(=O)N3CCCC3)c2)cc1` [Compound 110], the IC50 is greater than 1000 nM at hP2X2/3H and 100 to 500 nM on hP2X3.
For `Cc1ccc(-c2cc(C(=O)NC(C)c3csc(C)n3)cc(C(=O)N3CCCC3)c2)cc1` (centres unmarked) [Compound 111, 4′-Methyl-N-(1-(2-methylthiazol-4-yl)ethyl)-5-(pyrrolidine-1-carbonyl)biphenyl-3-carboxamide] the same measures were 100 to 500 nM and less than 100 nM.
For `Cc1ccc(CNC(=O)c2cc(-c3ccc(Cl)c(Cl)c3)cc(S(C)(=O)=O)c2)cn1` [Compound 112] the same measures were greater than 1000 nM and greater than 1000 nM.
Regarding `Cc1ccc(-c2cc(C(=O)NCc3ccc(C)nc3)cc(S(C)(=O)=O)c2)nc1` [Compound 113, 3-(5-Methylpyridin-2-yl)-N-((6-methylpyridin-3-yl)methyl)-5-(methylsulfonyl)benzamide], the IC50 on hP2X2/3H was 100 to 500 nM; on hP2X3, less than 100 nM.
For `COc1ncc([C@@H](C)NC(=O)c2cc(-c3ccc(C)cc3)cc(S(C)(=O)=O)c2)cn1` [Compound 114] the same measures were 100 to 500 nM and less than 100 nM.
With `COc1ncc(CNC(=O)c2cc(-c3ccc(C)cc3)cc(S(C)(=O)=O)c2)cn1` [Compound 115], the IC50 is 100 to 500 nM on hP2X2/3H and less than 100 nM on hP2X3.
For `Cc1ccc(-c2cc(C(=O)N[C@H](C)c3cnc(C)nc3)cc(S(C)(=O)=O)c2)cc1` [Compound 116, (R)-4′-Methyl-N-(1-(2-methylpyrimidin-5-yl)ethyl)-5-(methylsulfonyl)biphenyl-3-carboxamide] the same measures were less than 100 nM and less than 100 nM.
For the compound `Cc1ccc(-c2cc(C(=O)N[C@H](C)c3cnn(CC(F)(F)F)c3C)cc(C(=O)N3CCCC3)c2)cc1` [Compound 117], the IC50 at hP2X2/3H was greater than 1000 nM; at hP2X3, 501 to 1000 nM.
The corresponding values for `Cc1ccc(-c2cc(C(=O)NC(C)c3ccc(C)nc3)cc(C(=O)N3CCCC3)c2)nc1` (centres unmarked) [Compound 118] are less than 100 nM and less than 100 nM.
In the case of `Cc1ccc(CNC(=O)c2cc(-c3ccc(Cl)c(C)c3)cc(S(C)(=O)=O)c2)cn1` [Compound 119], the IC50 on hP2X2/3H and at hP2X3 was greater than 1000 nM throughout.
For `Cc1ccc(CNC(=O)c2cc(-c3ccc(C)c(Cl)c3)cc(S(C)(=O)=O)c2)cn1` [Compound 120], the IC50 on hP2X2/3H and at hP2X3 was greater than 1000 nM each time.
